One assay has as its target T1, 5-HT1A receptor (Sus scrofa, UniProt A0A4X1UTF5).
T1 construct: Swine hippocampus was homogenized in a 50 mM Tris-Hcl buffer; from tissue; host or cells: swine hippocampus, membrane fraction
T1 sequence (A0A4X1UTF5 1-422): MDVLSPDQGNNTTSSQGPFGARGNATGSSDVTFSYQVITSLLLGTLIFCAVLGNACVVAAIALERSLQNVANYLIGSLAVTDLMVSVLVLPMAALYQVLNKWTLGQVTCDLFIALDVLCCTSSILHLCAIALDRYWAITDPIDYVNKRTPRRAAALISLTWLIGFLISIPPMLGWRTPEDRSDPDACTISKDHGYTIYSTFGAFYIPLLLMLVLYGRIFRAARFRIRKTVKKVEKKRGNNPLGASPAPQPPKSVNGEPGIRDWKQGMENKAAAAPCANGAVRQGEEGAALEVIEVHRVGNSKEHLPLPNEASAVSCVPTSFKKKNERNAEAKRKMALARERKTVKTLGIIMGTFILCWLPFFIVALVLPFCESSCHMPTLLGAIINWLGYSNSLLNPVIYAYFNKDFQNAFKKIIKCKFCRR
Put plainly: Affinity for serotonin 1A receptor: inhibition of [3H]MPPF binding in swine hippocampal membrane fraction. To be noted: for pIC50: [3H]MPPF 0.5 nM, swine hippocampal membrane, 37°C 30 min; for L/H ratio: low affinity IC50 divided by high affinity IC50, 1 or smaller = no intrinsic activity, 2 or greater = intrinsic activity. The text has this: (1) The affinity of a test substance for a 5-HT1A receptor was examined by an inhibition experiment, in which the inhibitory effect of the test substance against the binding of [^3H]-4-(2′-methoxy)phenyl-1-(2′-(N-2″-pyridinyl)-p-fluorobenzamido)ethyl-piperazine (MPPF) that selectively binds to the 5-HT1A receptor in a swine hippocampal membrane fraction was examined. The 5-HT1A receptor that is a G-protein binding receptor becomes a G-protein binding state with addition of MgCl2. In contrast, it becomes a G-protein non-binding state with addition of guanylylimido diphosphate (Gpp(NH)p). […] Thus, both the affinity of a test substance to the receptor that was in a state of not binding to the G-protein and the affinity of the test substance to the receptor that was in a state of binding to the G-protein were obtained. Then, the obtained values were compared to each other, so as to estimate the level of the intrinsic activity of the test substance. Theoretically, when the value (L/H) obtained by dividing the affinity of a test substance to the receptor that is in a low affinity state (IC50 value) by the affinity of a test substance to the receptor that is in a high affinity state (IC50 value) is 1 or less, the intrinsic activity thereof is zero. The greater this value, the higher the intrinsic activity that can be obtained.
Swine hippocampus was homogenized in a 50 mM Tris-Hcl buffer (pH 7.4; hereinafter referred to as buffer A) that had been cooled on ice. The suspension was centrifuged at 40,000×g for 15 minutes. The obtained pellet was suspended in buffer solution A, and the thus obtained solution was then centrifuged at 40,000×g for 15 minutes. The same operation was repeated 2 or 3 times. The finally obtained pellet was suspended in a buffer solution A in an amount 10 times the wet weight of the swine hippocampus, so as to obtain a membrane fraction. The obtained membrane fraction was stored at −80° C. until use.
A mixture (0.5 ml) used for incubation comprised an appropriate amount of the membrane fraction, a test substance with a desired concentration, MgCl2 (final concentration: 10 mM) or Gpp(NH)p (final concentration: 1 mM), [^3H]MPPF (final concentration: 0.5 nM), dimethyl sulfoxide (final concentration: 1% (v/v)), and a 50 mM Tris-Hcl buffer (pH 7.4). The reaction was initiated with addition of the membrane fraction, and the mixture was incubated at 37° C. for 30 minutes. After completion of the incubation, the mixture was subjected to vacuum filtration with a glass filter, using Cell Harvester. The filter was washed with buffer solution A that had been cooled on ice. Thereafter, radioactivity binding to the receptor was measured with a liquid scintillation counter. Non-specific binding was defined as binding detected in the presence of 10 μM WAY-100,635.

The target of a further assay is T2, serotonin 1A receptor (Mus musculus, UniProt Q64264).
T2 construct: into the rectum of CD-1 (ICR) male mice (25-45 g); from tissue; host or cells: living CD-1 (ICR) male mice (in vivo)
T2 sequence (Q64264 1-421): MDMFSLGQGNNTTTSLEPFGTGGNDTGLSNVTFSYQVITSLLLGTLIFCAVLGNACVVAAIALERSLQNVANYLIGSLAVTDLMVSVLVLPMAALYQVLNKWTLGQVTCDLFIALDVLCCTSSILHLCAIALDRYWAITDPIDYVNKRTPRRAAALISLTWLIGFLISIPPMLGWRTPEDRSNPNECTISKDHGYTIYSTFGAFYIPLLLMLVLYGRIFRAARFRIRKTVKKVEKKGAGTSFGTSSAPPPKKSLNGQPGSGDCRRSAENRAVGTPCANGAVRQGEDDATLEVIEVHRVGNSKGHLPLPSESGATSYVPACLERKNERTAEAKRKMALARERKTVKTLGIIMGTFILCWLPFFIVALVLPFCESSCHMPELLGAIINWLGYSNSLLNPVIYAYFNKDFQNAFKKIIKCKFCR
Put plainly: Antagonistic effect on serotonin 1A receptor agonist (8-OH-DPAT)-induced hypothermia in mouse. The format is in vivo. To be noted: CD-1 (ICR) male mice; inhibition of hypothermia by 8-OH-DPAT 0.5 mg/kg sc; test substance 15 minutes before agonist. Here is the method: (1) A thermistor probe was inserted at a depth of approximately 2 cm into the rectum of CD-1 (ICR) male mice (25-45 g), so as to measure the body temperature thereof. Body temperature is decreased by subcutaneous administration of serotonin 1A receptor agonist (8-hydroxy-dipropylaminotetralin (8-OH-DPAT) 0;5 mg/kg. Since a serotonin 1A antagonist inhibits such action, the antagonistic effect of a test substance to a serotonin 1A receptor was evaluated using the inhibitory effect of the hypothermia as an index. The test results are shown in Table 2 indicated below. A test substance was administered 15 minutes before the administration of the serotonin 1A agonist. A serotonin 1A partial agonist alone decreases the body temperature, depending on the degree of the agonistic action thereof. In addition, it has a weak antagonistic effect on 8-OH-DPAT-induced hypothermia.

Where [1] appears, read: receptor in high affinity (G-protein binding, MgCl2 10 mM) state, read-out: High affinity IC50.
[2] abbreviates: receptor in low affinity (G-protein non-binding, Gpp(NH)p 1 mM) state, read-out: Low affinity IC50.

In US20050256103A1, “Indole derivative having piperidine ring” (Eisai Co., Ltd., priority 2004, published 2005) one finds IC50, L/H ratio and ED50 data, which are given here for 13 compounds.

pIC50: −log10 of the molar value. Read-outs that look alike come from different tables or passages of the source.

As usually defined, the pIC50 is −log10 of the IC50, conventionally taken in molar units.

On to `COc1cc2c(cc1CCN1CCC(n3ccc4ccc(C(N)=O)cc43)CC1)OCCO2` [Compound 31, 1-{1-[2-(7-methoxy-2,3-dihydrobenz[1,4]dioxin-6-yl)ethyl]piperidin-4-yl}-1H-indole-6-carboxamide], for which the pIC50 is 9.80 at 5-HT1A receptor (setting [1]) and 9.82 at 5-HT1A receptor (setting [2]). For the same compound, the L/H ratio on 5-HT1A receptor came out at 0.9. Also, the ED50 on serotonin 1A receptor was 0.04 mg/kg, sc.

Take `COc1ccc2c(c1CCN1CCC(n3ccc4ccc(C(N)=O)cc43)CC1)OCCO2` [Compound 32, 1-{1-[2-(6-methoxy-2,3-dihydrobenz[1,4]dioxin-5-yl)ethyl]piperidin-4-yl}-1H-indole-6-carboxamide]: the figures for the negative-log IC50 (pIC50) on 5-HT1A receptor (setting [1]) and on 5-HT1A receptor (setting [2]) were 9.59 and 9.60, respectively. Also, the L/H ratio at 5-HT1A receptor was determined as 1. For the same compound, the ED50 on serotonin 1A receptor is listed as 0.04 mg/kg, sc.

As for `COc1cc2c(cc1CCN1CCC(n3ccc4ccc(C(N)=O)cc43)CC1)C(=O)N(C)CC2` [Compound 33, 1-{1-[2-(6-methoxy-2-methyl-1-oxo-1,2,3,4-tetrahydroisoquinoline-7-yl)ethyl]piperidin-4-yl}-1H-indole-6-carboxamide], the negative-log IC50 (pIC50) at 5-HT1A receptor (setting [1]) is 9.77; at 5-HT1A receptor (setting [2]) it was 9.92. In addition, the L/H ratio on 5-HT1A receptor is given as 0.7. Further, the ED50 at serotonin 1A receptor is 0.12 mg/kg, sc.

As to `COc1ccc2c(c1CCN1CCC(n3ccc4ccc(C(N)=O)cc43)CC1)CCN(C)C2=O` [Compound 34, 1-(1-(2-(6-methoxy-2-methyl-1-oxo-1,2,3,4-tetrahydroisoquinolin-5-yl)ethyl)piperidin-4-yl)-1H-indole-6-carboxamide], the negative logarithm of the IC50 (pIC50) is 9.59 on 5-HT1A receptor (setting [1]) and 9.70 at 5-HT1A receptor (setting [2]). Also, on 5-HT1A receptor, the L/H ratio was determined as 0.8. The ED50 on serotonin 1A receptor is reported as 0.37 mg/kg, sc.

Take `COc1ccc2c(=O)ccoc2c1CCN1CCC(n2ccc3ccc(C(N)=O)cc32)CC1` [Compound 35, 1-{1-[2-(7-methoxy-4-oxo-4H-chromen-8-yl)ethyl]piperidin-4-yl}-1H-indole-6-carboxamide]: the pIC50 is 9.57 on 5-HT1A receptor (setting [1]) and 9.64 on 5-HT1A receptor (setting [2]). Further, the L/H ratio at 5-HT1A receptor was found to be 0.9. Besides, the ED50 on serotonin 1A receptor is reported as 0.2 mg/kg, sc.

With `COc1ccc2c(=O)c(C)c(C)oc2c1CCN1CCC(n2ccc3ccc(C(N)=O)cc32)CC1` [Compound 36, 1-{1-[2-(7-methoxy-2,3-dimethyl-4-oxo-4H-chromen-8-yl)ethyl]piperidin-4-yl}-1H-indole-6-carboxamide], the negative logarithm of the IC50 (pIC50) was 9.59 at 5-HT1A receptor (setting [1]) and 9.85 at 5-HT1A receptor (setting [2]). Also, the L/H ratio on 5-HT1A receptor turned out to be 0.5. In addition, at serotonin 1A receptor, the ED50 is listed as 0.2 mg/kg, sc.

Consider `CNC(=O)c1ccc2ccn(C3CCN(CCc4cc5c(cc4OC)CCN(C)C5=O)CC3)c2c1` [Compound 38, 1-{1-[2-(6-methoxy-2-methyl-1-oxo-1,2,3,4-tetrahydroisoquinolin-7-yl)ethyl]piperidin-4-yl}-N-methyl-1H-indole-6-carboxamide], for which the pIC50 at 5-HT1A receptor (setting [1]) was 9.70; at 5-HT1A receptor (setting [2]), 9.89. For the same compound, the L/H ratio at 5-HT1A receptor was determined as 0.7. The ED50 at serotonin 1A receptor is 0.19 mg/kg, sc.

With `COc1ccc2ccccc2c1CCN1CCC(n2ccc3ccc(C(N)=O)cc32)CC1` [Compound 44, 1-{1-[2-(2-methoxynaphthalen-1-yl)ethyl]piperidin-4-yl}-1H-indole-6-carboxamide], the pIC50 at 5-HT1A receptor (setting [1]) was 9.40; at 5-HT1A receptor (setting [2]) it was 9.33. For the same compound, on 5-HT1A receptor, the L/H ratio was found to be 1.2. Besides, on serotonin 1A receptor, the ED50 was 0.41 mg/kg, sc.

As for `COc1cc2ccccc2cc1CCN1CCC(n2ccc3ccc(C(N)=O)cc32)CC1` [Compound 45, 1-{1-[2-(3-methoxynaphthalen-2-yl)ethyl]piperidin-4-yl}-1H-indole-6-carboxamide], the results for the negative-log IC50 (pIC50) on 5-HT1A receptor (setting [1]) and on 5-HT1A receptor (setting [2]) were 9.24 and 9.16, respectively. For the same compound, the L/H ratio on 5-HT1A receptor turned out to be 1.2. Further, the ED50 at serotonin 1A receptor is given as 0.26 mg/kg, sc.

With `COc1ccc2c(c1CCN1CCC(n3ccc4ccc(C(N)=O)cc43)CC1)OCCC2O` (stereo not shown) [Compound 46, 1-{1-[2-(4-hydroxy-7-methoxychroman-8-yl)ethyl]piperidin-4-yl}-1H-indole-6-carboxamide], the negative logarithm of the IC50 (pIC50) at 5-HT1A receptor (setting [1]) is 9.62; on 5-HT1A receptor (setting [2]) it was 9.48. Further, the L/H ratio on 5-HT1A receptor is on record as 1.4. Also, the ED50 on serotonin 1A receptor is recorded as 0.3 mg/kg, sc.

With `COc1ccc2c(c1CCN1CCC(n3ccc4ccc(C(N)=O)cc43)CC1)OCCC2=O` [Compound 47, 1-{1-[2-(7-methoxy-4-oxochroman-8-yl)ethyl]piperidin-4-yl}-1H-indole-6-carboxamide], the negative logarithm of the IC50 (pIC50) at 5-HT1A receptor (setting [1]) and at 5-HT1A receptor (setting [2]) was 9.64 in each case. For the same compound, the L/H ratio on 5-HT1A receptor turned out to be 1. Moreover, the ED50 on serotonin 1A receptor was 0.21 mg/kg, sc.

Consider `CNC(=O)c1ccc2ccn(C3CCN(CCc4c(OC)ccc5c4OC(C)(C)CC5O)CC3)c2c1` (stereo not shown) [Compound 48, 1-{1-[2-(4-hydroxy-7-methoxy-2,2-dimethylchroman-8-yl)ethyl]piperidin-4-yl}-N-methyl-1H-indole-6-carboxamide], for which the figures for the pIC50 on 5-HT1A receptor (setting [1]) and on 5-HT1A receptor (setting [2]) were 8.92 and 8.96, respectively. Further, at 5-HT1A receptor, the L/H ratio stood at 0.9. For the same compound, the ED50 on serotonin 1A receptor is 0.06 mg/kg, sc.

On to `COc1ccc2c(c1CCN1CCC(n3ccc4ccc(C(N)=O)cc43)CC1)CCC2O` (stereo not shown) [Compound 49, 1-{1-[2-(1-hydroxy-5-methoxyindan-4-yl)ethyl]piperidin-4-yl}-1H-indole-6-carboxamide], for which the pIC50 was 9.66 on 5-HT1A receptor (setting [1]) and 9.57 at 5-HT1A receptor (setting [2]). For the same compound, the L/H ratio on 5-HT1A receptor is 1.2. In addition, the ED50 on serotonin 1A receptor is 0.28 mg/kg, sc.
